Measurements taken from US20080025960A1, “Detergents with stabilized enzyme systems” (priority 2006, published 2008).

What was measured:
Type in all cases: biochemical
glucose oxidase = molecular target: T1, glucose oxidase (Aspergillus niger, UniProt P13006); assay: Hydrogen peroxide generation by glucose oxidase after dilution of the mixture in laundry wash liquor, dipsticks; conditions: for H2O2 PPM / Hydrogen Peroxide Generation, PPM H2O2: wash liquor, 1 mM glucose; for character of glucose oxidase inhibition: inhibited at high substrate concentration in detergent, inhibition disappears upon dilution in wash water, concentration-dependent; for hydrogen peroxide produced: liquid detergent formulations after 3 weeks of storage with inhibitor, diluted in wash liquor; for H2O2 generated: wash liquor control containing buffer; for Hydrogen Peroxide Generation, PPM H2O2: 1 PPM oxidase
T1 construct: purchased Genencor OXYGO L-5000
T1 sequence (P13006 17-605): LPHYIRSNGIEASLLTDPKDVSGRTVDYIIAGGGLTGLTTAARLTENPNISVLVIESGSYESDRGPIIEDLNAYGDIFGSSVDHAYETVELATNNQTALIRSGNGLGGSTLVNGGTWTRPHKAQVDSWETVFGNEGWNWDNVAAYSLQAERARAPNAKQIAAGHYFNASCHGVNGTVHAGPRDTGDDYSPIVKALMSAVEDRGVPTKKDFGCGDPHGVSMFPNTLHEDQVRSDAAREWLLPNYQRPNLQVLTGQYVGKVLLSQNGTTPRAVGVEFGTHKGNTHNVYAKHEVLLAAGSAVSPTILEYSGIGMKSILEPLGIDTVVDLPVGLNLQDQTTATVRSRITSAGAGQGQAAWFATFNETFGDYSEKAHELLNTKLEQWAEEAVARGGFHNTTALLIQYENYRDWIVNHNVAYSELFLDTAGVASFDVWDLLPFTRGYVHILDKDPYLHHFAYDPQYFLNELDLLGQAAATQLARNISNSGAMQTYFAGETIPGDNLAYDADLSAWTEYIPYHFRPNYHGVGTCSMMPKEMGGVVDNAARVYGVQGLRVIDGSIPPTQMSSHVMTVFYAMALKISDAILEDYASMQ
Method: In these experiments, 100 mM Tris pH 8.3 with 0.005% TWEEN®-100 surfactant was used as a positive control. The choice of pH 8.3 was based upon the measured pH of the AATCC detergent. Three two-ml tubes containing 0.990 g of AATCC detergent (lot # 01282004) and another three tubes with 0.990 g of control buffer were weighed. Then, 90 mg (500 mM) glucose substrate was added to each tube. […] All of the tubes were placed on a rotary plate for an hour to allow good mixing and solubilization of glucose into the detergent. Then, 6 tubes containing five-ml wash water (5 mM HEPES with 6 GPG, pH 8) were prepared. Next, 500 PPM (0.5 mg, 14.88 ul) glucose oxidase (OXYGO™ L-5000, 5379 U/ml; 33.6 mg/ml; Genencor) was added to six 2-ml tubes (three with glucose/bisulfite containing control buffers and three with glucose/bisulfite containing AATCC detergent). All of the tubes were then set on the rotary plate (60 rpm) at room temperature. H2O2 production was measured using dipsticks (peroxidase/ABTS), as described in Example 1, for t=0+ minutes, 12 minutes, and 30 minutes. Immediately after addition of the enzyme to the detergent and control mixtures, 10 ul of the mixture were removed and mixed with 5 ml of wash water. All of the tubes were also then checked for hydrogen peroxide using dipsticks at 12 and 30 minutes. With 5 ml wash liquor, the final glucose oxidase enzyme concentration was 1 PPM and the glucose concentration was 1 mM.
In these experiments, 100 mM Tris pH 8.3 with 0.005% TWEEN®-100 surfactant was used as a positive control. The choice of pH 8.3 was based upon the measured pH of the AATCC detergent. Three two-ml tubes containing 0.990 g of AATCC detergent (lot # 01282004) and another three tubes with 0.990 g of control buffer were weighed. Then, 90 mg (500 mM) glucose substrate was added to each tube. Then, 100, 50, and 10 mM sodium metabisulfite were added to each tube respectively (i.e., both control buffer and AATCC detergent-containing tubes). All of the tubes were placed on a rotary plate for an hour to allow good mixing and solubilization of glucose into the detergent. Then, 6 tubes containing five-ml wash water (5 mM HEPES with 6 GPG, pH 8) were prepared. Next, 500 PPM (0.5 mg, 14.88 ul) glucose oxidase (OXYGO™ L-5000, 5379 U/ml; 33.6 mg/ml; Genencor) was added to six 2-ml tubes (three with glucose/bisulfite containing control buffers and three with glucose/bisulfite containing AATCC detergent). All of the tubes were then set on the rotary plate (60 rpm) at room temperature. H2O2 production was measured using dipsticks (peroxidase/ABTS), as described in the above Examples, for t=0+ minutes, 12 minutes, and 30 minutes. Immediately after addition of the enzyme to the detergent and control mixtures, 10 ul of the mixture were removed and mixed with 5 ml of wash water. All of the tubes were also then checked for hydrogen peroxide using dipsticks at 12 and 30 minutes. With 5 ml wash liquor, the final glucose oxidase enzyme concentration was 1 PPM and the glucose concentration was 1 mM.

choline oxidase [1] = molecular target: T2, choline oxidase (Arthrobacter globiformis, UniProt Q7X2H8); assay: H2O2 in control buffer or AATCC liquid detergent stock with choline oxidase, choline and inhibitor; conditions: for H2O2 PPM: T = 0+, 12, 30 and 60, 1M choline chloride, 10U choline oxidase, 100 mM sodium bisulfite inhibitor (pH7)
T2 sequence (Q7X2H8 1-546): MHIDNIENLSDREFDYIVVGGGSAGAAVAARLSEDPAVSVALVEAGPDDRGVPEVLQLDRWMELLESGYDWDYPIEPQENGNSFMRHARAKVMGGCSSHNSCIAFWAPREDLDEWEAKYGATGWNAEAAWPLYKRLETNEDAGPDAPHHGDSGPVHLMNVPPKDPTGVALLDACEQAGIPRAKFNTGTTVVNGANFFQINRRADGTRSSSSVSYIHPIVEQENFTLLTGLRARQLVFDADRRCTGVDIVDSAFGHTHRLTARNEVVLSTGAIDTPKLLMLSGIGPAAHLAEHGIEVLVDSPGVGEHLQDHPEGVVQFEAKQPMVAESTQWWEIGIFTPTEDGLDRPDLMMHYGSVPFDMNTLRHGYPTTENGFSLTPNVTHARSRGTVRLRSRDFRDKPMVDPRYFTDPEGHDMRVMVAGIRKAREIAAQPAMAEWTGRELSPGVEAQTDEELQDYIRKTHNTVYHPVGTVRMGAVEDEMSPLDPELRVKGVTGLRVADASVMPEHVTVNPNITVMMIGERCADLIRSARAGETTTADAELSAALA
Method: In this Example, experiments conducted to assess the stabilization of choline oxidase in the presence of its substrate (i.e., choline) and an inhibitor (i.e., sodium bisulfite and 2-amino,2-methyl,1-propanol) is described. In these experiments, AATCC standard detergent was used.
(§1) The experiments were conducted as described in Example 1. Choline oxidase produces two moles of H2O2 per mole of choline. The results obtained in these experiments confirmed that choline oxidase was stable in AATCC detergent over 24 hour period tested in presence of choline and inhibitors. […] Upon dilution in wash liquor, detergent containing choline oxidase, choline chloride and an inhibitor (e.g., sodium hydrogen sulfite or 2-amino,2-methyl,1-propanol) produced H2O2 over time, as indicated in Table 5.

choline oxidase [2] = molecular target: T2, choline oxidase; assay: H2O2 in wash liquor with choline oxidase, choline chloride and inhibitor; conditions: 2 mM choline chloride, 0.02U choline oxidase, 0.2 mM sodium bisulfite inhibitor (pH7)
Method: as §1

## O=S([O-])S(=O)(=O)[O-].[Na+].[Na+] [sodium metabisulfite]
Glucose oxidase; AATCC Detergent, T = 12 min, 1 PPM enzyme, 0.2 mM sodium metabisulfite
  H2O2 PPM: 3 PPM
Glucose oxidase; AATCC Detergent, T = 30 min, 1 PPM enzyme, 0.2 mM sodium metabisulfite
  H2O2 PPM: ˜10 PPM
Glucose oxidase; AATCC Detergent, T = 60 min, 1 PPM glucose oxidase, 0.2 mM sodium metabisulfite
  H2O2 PPM: >10 PPM
Glucose oxidase; Control Buffer, T = 12 min, 1 PPM enzyme, 0.2 mM sodium metabisulfite (100 mM in formulation)
  H2O2 PPM: ~3 PPM
Glucose oxidase; Control Buffer, T = 12 min, 1 PPM enzyme, 0.2 mM sodium metabisulfite (100 mM in formulation), listed as sodium metabisulftie
  H2O2 PPM: 1 PPM
Glucose oxidase; Control Buffer, T = 30 min, 1 PPM enzyme, 0.2 mM sodium metabisulfite
  H2O2 PPM: 3 PPM
Glucose oxidase; Control Buffer, T = 60 min, 1 PPM glucose oxidase, 0.2 mM sodium metabisulfite
  H2O2 PPM: 10 PPM
Glucose oxidase
  character of glucose oxidase inhibition: reversible inhibitor
Glucose oxidase; 12 minutes
  hydrogen peroxide produced: 3 PPM
Glucose oxidase; 30 minutes
  hydrogen peroxide produced: ~10 PPM
Glucose oxidase; wash liquor containing AATCC detergent, all three metabisulfite inhibitor concentrations, 12 minutes
  hydrogen peroxide generated: > 3 PPM
Glucose oxidase; 10 mM metabisulfite (formulation), 12 minutes
  H2O2 generated: about 10 PPM
Glucose oxidase; 50 mM metabisulfite (formulation), 12 minutes
  H2O2 generated: about 10 PPM
Glucose oxidase; wash liquor with AATCC detergent, all three metabisulfite inhibitor concentrations, 30 minutes
  hydrogen peroxide generated: ~10 PPM

## O=S([O-])O.[Na+] [bisulfite, sodium hydrogen sulfite]
Glucose oxidase; AATCC Detergent, T = 12 (second line so headed, after the T = 30 lines), 0.2 mM bisulfite
  Hydrogen Peroxide Generation, PPM H2O2: ˜10 PPM
Glucose oxidase; AATCC Detergent, T = 12 min, 0.02 mM bisulfite
  Hydrogen Peroxide Generation, PPM H2O2: 3 PPM
Glucose oxidase; AATCC Detergent, T = 12 min, 0.1 mM bisulfite
  Hydrogen Peroxide Generation, PPM H2O2: 3 PPM
Glucose oxidase; AATCC Detergent, T = 12 min, 0.2 mM bisulfite
  Hydrogen Peroxide Generation, PPM H2O2: 3 PPM
Glucose oxidase; AATCC Detergent, T = 30 min, 0.02 mM bisulfite
  Hydrogen Peroxide Generation, PPM H2O2: 10 PPM
Glucose oxidase; AATCC Detergent, T = 30 min, 0.1 mM bisulfite
  Hydrogen Peroxide Generation, PPM H2O2: ˜10 PPM
Glucose oxidase; Control Buffer, T = 12 (second line so headed, after the T = 30 lines), 0.2 mM bisulfite
  Hydrogen Peroxide Generation, PPM H2O2: ˜3 PPM
Glucose oxidase; Control Buffer, T = 30 min, 0.02 mM bisulfite
  Hydrogen Peroxide Generation, PPM H2O2: 10 PPM
Glucose oxidase; Control Buffer, T = 30 min, 0.1 mM bisulfite
  Hydrogen Peroxide Generation, PPM H2O2: ˜10 PPM
Glucose oxidase
  character of glucose oxidase inhibition: reversible inhibitor
Glucose oxidase; wash liquor containing AATCC detergent, all three bisulfite inhibitor concentrations, 12 minutes
  hydrogen peroxide generated: > 3 PPM
Glucose oxidase; wash liquor with AATCC detergent, all three bisulfite inhibitor concentrations, 30 minutes
  hydrogen peroxide generated: ~10 PPM
Choline oxidase [1]; AATCC Detergent
  H2O2 PPM: 0 PPM
Choline oxidase [1]; Control Buffer
  H2O2 PPM: 0 PPM
Choline oxidase [1]; sodium hydrogen sulfite 100 mM concentration
  premature generation of H2O2 in AATCC detergent stock: able to stop premature generation of H2O2
Choline oxidase [1]; sodium hydrogen sulfite at 100 mM concentration tested
  character of choline oxidase inhibition: reversible inhibitor
Choline oxidase [2]; AATCC Detergent, T = 0+
  H2O2 PPM: 1 PPM
Choline oxidase [2]; AATCC Detergent, T = 12 min
  H2O2 PPM: 10 PPM
Choline oxidase [2]; AATCC Detergent, T = 30 min
  H2O2 PPM: > 10 PPM
Choline oxidase [2]; AATCC Detergent, T = 60 min
  H2O2 PPM: 30 PPM
Choline oxidase [2]; Control Buffer, T = 0+
  H2O2 PPM: 1 PPM
Choline oxidase [2]; Control Buffer, T = 12 min
  H2O2 PPM: 10 PPM
Choline oxidase [2]; Control Buffer, T = 30 min
  H2O2 PPM: > 10 PPM
Choline oxidase [2]; Control Buffer, T = 60 min
  H2O2 PPM: 30 PPM
